Experimental data: patent US8318297B2, “Titanate nanowire, titanate nanowire scaffold, and processes of making same” (Board of Trustees of the University of Arkansas, priority 2007, dated 2012)

Test: Controlled release of crystal violet from nanowire scaffolds on Ti foil
Assay type: physicochemical
Details: for Release (%): crystal violet released from nanowire scaffolds on Ti, 10 mL fresh water
Experimental: A piece of dried titanium foil (2.2 cm^2) that was coated with nanofiber scaffolds was soaked in 100 mL of 0.001 mol/L crystal violet (C25H30ClN3, as a simulated drug) solution for 12 hours at room temperature. Then, the foil was collected, rinsed with deionized water, dried at room temperature overnight, and placed in 10 mL of fresh water for releasing the crystal violet molecules. The released crystal violet was measured on the Beckman DU-530 UV-Visible Spectrometer. A piece of dried titanium foil (2.2 cm^2) pre-coated with the nanowire scaffolds was soaked in 100 mL of 0.001 mol/L crystal violet (C25H30ClN3, as a simulated drug) solution for 12 hrs at room temperature. Then, the foil was collected, rinsed with deionized water, dried at room temperature overnight, and was then placed in 10 mL of fresh water for releasing the crystal violet molecules. The released crystal violet was measured on the Beckman DU-530 UV-Visible Spectrometer.

Compound: CN(C)c1ccc(C(=C2C=CC(=[N+](C)C)C=C2)c2ccc(N(C)C)cc2)cc1 [Crystal violet, crystal violet]
- Release (%) (time 0 hours): 22.6%
- Release (%) (time 2 hours): 82.0%
- Release (%) (time 2 hours, listed as model drug): ~80%
- Release (%) (time 4 hours): 95.0%
- Release (%) (time 6 hours): 99.2%
- Release (%) (time 12 hours): 100%
- time at which the model drug's concentration reached a maximum (release from nanowire scaffold on Ti foil): 6 h
